According to patent publication US10414740B2, “Glutaminase inhibitors and method of use” (Agios Pharmaceuticals, Inc., priority 2012, dated 2019):

target: T1, glutaminase (GAC) (Homo sapiens, UniProt O94925); assay: glutaminase coupled endpoint assay (Example A); format: biochemical; conditions: inhibition of glutaminase; IC50 tested in an assay of Example A or Example B
T1 sequence (O94925 55-598 isoform O94925-3 limits assumed): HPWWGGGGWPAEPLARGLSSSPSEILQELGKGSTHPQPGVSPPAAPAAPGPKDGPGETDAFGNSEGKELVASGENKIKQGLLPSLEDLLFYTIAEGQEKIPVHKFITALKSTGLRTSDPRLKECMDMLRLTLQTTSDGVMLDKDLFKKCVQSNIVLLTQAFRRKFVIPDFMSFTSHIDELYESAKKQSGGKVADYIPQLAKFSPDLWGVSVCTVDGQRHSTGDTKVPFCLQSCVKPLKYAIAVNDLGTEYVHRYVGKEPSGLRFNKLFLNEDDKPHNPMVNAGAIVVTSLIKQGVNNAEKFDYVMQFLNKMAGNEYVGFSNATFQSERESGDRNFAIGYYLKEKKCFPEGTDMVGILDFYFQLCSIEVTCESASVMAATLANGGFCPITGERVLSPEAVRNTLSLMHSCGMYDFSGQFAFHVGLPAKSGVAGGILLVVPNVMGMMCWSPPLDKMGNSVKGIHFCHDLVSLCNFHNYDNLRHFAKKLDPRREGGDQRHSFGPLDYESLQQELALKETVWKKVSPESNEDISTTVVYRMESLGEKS
Procedure: In this example, the enzymatic activity of glutaminase is measured through a coupled endpoint assay. […] The glutamate produced is converted to 2-OG by a kinetic excess of glutamate dehydrogenase. […] However, a kinetic excess of the third coupling enzyme, diaphorase, recycles NAD from NADH to keep the NAD concentration constant during the timecourse of the assay. Diaphorase, also supplied in kinetic excess, oxidizes NADH produced by GDH back to NAD with the concomitant reduction of rezasurin to the highly fluorescent resorufin. […] A reduction in the signal indicates inhibition of some component of the coupled enzyme system. Prospective hits are counterscreened against GDH/diaphorase alone to remove hits to the coupling enzyme system in a second assay.
2. […] Add 1 μl a compound in 100% DMSO 2. Add 40 μl of Enzyme Mix and incubate for 60 minute at room temperature 3. Add 10 μl of Substrate Mix to start reaction 4.

| IC50 [nM] | Structure (SMILES) |
| --- | --- |
| 100 to 500 | O=C(CC1NC(=O)NC1=O)Nc1nnc(CCCCc2nnc(NC(=O)CC3NC(=O)NC3=O)s2)s1 (stereo not shown) [Compound 89, N,N′-(5,5′-(butane-1,4-diyl)bis(1,3,4-thiadiazole-5,2-diyl))bis(2-(2,5-dioxoimidazolidin-4-yl)acetamide)] |
| 1000 to 10000 | O=C(Cc1ccccc1)Nc1nnc(CSCc2nnc(NC(=O)Cc3ccccc3)s2)s1 [Compound 32] |
| 100 to 500 | O=C(Cc1ccccc1)Nc1nnc(CC[S+]([O-])CCc2nnc(NC(=O)Cc3ccccc3)s2)s1 [Compound 7, N,N′-(5,5′-(sulfinylbis(ethane-2,1-diyl))bis(1,3,4-thiadiazole-5,2-diyl))bis(2-phenyl Acetamide)] |
| 100 to 500 | O=C(CCCc1ccccc1)Nc1nnc(CCCCc2nnc(NC(=O)CCCc3ccccc3)s2)s1 [Compound 82, N,N′-(5,5′-(butane-1,4-diyl)bis(1,3,4-thiadiazole-5,2-diyl))bis(4-phenylbutanamide)] |
| < 100 | COc1ccc2[nH]cc(CC(=O)Nc3nnc(CCCCc4nnc(NC(C)=O)s4)s3)c2c1 [Compound 129] |
| < 100 | Cn1nc(CC(=O)Nc2nnc(CCCCc3nnc(NC(=O)Cc4nn(C)c5ccccc45)s3)s2)c2ccccc21 [Compound 122, N,N′-(5,5′-(butane-1,4-diyl)bis(1,3,4-thiadiazole-5,2-diyl))bis(2-(1-methyl-1H-indazol-3-yl)acetamide)] |
| 100 to 500 | CC(C)(C)OC(=O)Nc1nnc(CCS(=O)(=O)CCc2nnc(NC(=O)OC(C)(C)C)s2)s1 [Compound 15, Di-tert-butyl (5,5′-(sulfonylbis(ethane-2,1-diyl))bis(1,3,4-thiadiazole-5,2-diyl))dicarbamate] |
| 100 to 500 | O=C(CCc1ccco1)Nc1nnc(CCCCc2nnc(NC(=O)CCc3ccco3)s2)s1 [Compound 49, N,N′-(5,5′-(butane-1,4-diyl)bis(1,3,4-thiadiazole-5,2-diyl))bis(3-(furan-2-yl)propanamide)] |
| < 100 | COc1ccc(CC(=O)Nc2nnc(CCCCc3nnc(NC(=O)Cc4ccc(OC)c(OC)c4)s3)s2)cc1OC [Compound 63, N,N′-(5,5′-(butane-1,4-diyl)bis(1,3,4-thiadiazole-5,2-diyl))bis(2-(3,4-dimethoxyphenyl)acetamide)] |
| 500 to 1000 | O=C(CNC(=O)c1ccccc1)Nc1nnc(CCCCc2nnc(NC(=O)CNC(=O)c3ccccc3)s2)s1 [Compound 103, N,N′-(2,2′-(5,5′-(butane-1,4-diyl)bis(1,3,4-thiadiazole-5,2-diyl))bis(azanediyl)bis(2-oxoethane-2,1-diyl))dibenzamide] |
| 100 to 500 | CC(C(=O)Nc1nnc(CCCCc2nnc(NC(=O)C(C)c3ccc(N4Cc5ccccc5C4=O)cc3)s2)s1)c1ccc(N2Cc3ccccc3C2=O)cc1 (stereo not shown) [Compound 50, N,N′-(5,5′-(butane-1,4-diyl)bis(1,3,4-thiadiazole-5,2-diyl))bis(2-(4-(1-oxoisoindolin-2-yl)phenyl)propanamide)] |
| < 100 | O=C(Cc1c[nH]c2cccnc12)Nc1nnc(CCCCc2nnc(NC(=O)Cc3c[nH]c4cccnc34)s2)s1 [Compound 127, N,N′-(5,5′-(butane-1,4-diyl)bis(1,3,4-thiadiazole-5,2-diyl))bis(2-(1H-pyrrolo[3,2-b]pyridin-3-yl)acetamide)] |
| 1000 to 10000 | c1ccc(CCNc2nnc(CCSCCc3nnc(NCCc4ccccc4)s3)s2)cc1 [Compound 9, 5,5′-(thiobis(ethane-2,1-diyl))bis(N-phenethyl-1,3,4-thiadiazol-2-amine)] |
| 500 to 1000 | COc1cc(CCC(=O)Nc2nnc(CCCCc3nnc(NC(=O)CCc4cc(OC)c(OC)c(OC)c4)s3)s2)cc(OC)c1OC [Compound 101, N,N′-(5,5′-(butane-1,4-diyl)bis(1,3,4-thiadiazole-5,2-diyl))bis(3-(3,4,5-trimethoxyphenyl)propanamide)] |
| 100 to 500 | O=C(C/C=C/c1ccccc1)Nc1nnc(CCCCc2nnc(NC(=O)C/C=C/c3ccccc3)s2)s1 [Compound 81, (3E,3′E)-N,N′-(5,5′-(butane-1,4-diyl)bis(1,3,4-thiadiazole-5,2-diyl))bis(4-phenylbut-3-enamide)] |
| < 100 | O=C(Cc1ccccn1)Nc1nnc(CCCCc2nnc(NC(=O)Cc3ccccn3)s2)s1 [Compound 47, N,N′-(5,5′-(butane-1,4-diyl)bis(1,3,4-thiadiazole-5,2-diyl))bis(2-(pyridin-2-yl)acetamide)] |
| < 100 | COc1ccc2[nH]cc(CC(=O)Nc3nnc(CCCCc4nnc(NC(=O)Cc5c[nH]c6ccc(OC)cc56)s4)s3)c2c1 [Compound 61, N,N′-(5,5′-(butane-1,4-diyl)bis(1,3,4-thiadiazole-5,2-diyl))bis(2-(5-methoxy-1H-indol-3-yl)acetamide)] |

| IC50 [nM] | Structure (SMILES) |
| --- | --- |
| 500 to 1000 | O=C(Nc1nnc(CCSCCc2nnc(NC(=O)OC3CCCCC3)s2)s1)OC1CCCCC1 [Compound 8, Dicyclohexyl (5,5′-(thiobis(ethane-2,1-diyl))bis(1,3,4-thiadiazole-5,2-diyl))dicarbamate] |
| 1000 to 10000 | O=C(Cc1ccccc1)Nc1cc(CCCCc2cc(NC(=O)Cc3ccccc3)on2)no1 [Compound 99] |
| < 100 | O=C(CCCC(=O)c1ccccc1)Nc1nnc(CCCCc2nnc(NC(=O)CCCC(=O)c3ccccc3)s2)s1 [Compound 40, N,N′-(5,5′-(butane-1,4-diyl)bis(1,3,4-thiadiazole-5,2-diyl))bis(5-oxo-5-phenylpentanamide)] |
| 1000 to 10000 | O=C(Cc1cccc(C(F)(F)F)c1F)Nc1nnc(CCCCc2nnc(NC(=O)Cc3cccc(C(F)(F)F)c3F)s2)s1 [Compound 92] |
| 1000 to 10000 | CN(C(=O)Cc1ccccc1)c1nnc(CCCCc2nnc(N(C)C(=O)Cc3ccccc3)s2)s1 [Compound 97] |
| 500 to 1000 | CC(C)OC(=O)Nc1nnc(CCS(=O)(=O)CCc2nnc(NC(=O)OC(C)C)s2)s1 [Compound 23, Diisopropyl (5,5′-(sulfonylbis(ethane-2,1-diyl))bis(1,3,4-thiadiazole-5,2-diyl))dicarbamate] |
| 100 to 500 | COc1ccc(CC(=O)Nc2nnc(CCCCc3nnc(NC(C)=O)s3)s2)cc1OC [Compound 118, N-(5-(4-(5-acetamido-1,3,4-thiadiazol-2-yl)butyl)-1,3,4-thiadiazol-2-yl)-2-(3,4-dimethoxyphenyl)acetamide] |
| 100 to 500 | Cc1cc(CC(=O)Nc2nnc(CCCCc3nnc(NC(=O)Cc4cc(C)no4)s3)s2)on1 [Compound 42, N,N′-(5,5′-(butane-1,4-diyl)bis(1,3,4-thiadiazole-5,2-diyl))bis(2-(3-methylisoxazol-5-yl)acetamide)] |
| 1000 to 10000 | Cc1ccc(OCC(=O)Nc2nnc(CCCCc3nnc(NC(=O)COc4ccc(C)cc4C)s3)s2)c(C)c1 [Compound 65] |
| 100 to 500 | COc1ccc2c(c1)C(CC(=O)Nc1nnc(CCCCc3nnc(NC(=O)CC4CC(=O)c5ccc(OC)cc54)s3)s1)CC2=O (stereo not shown) [Compound 43, N,N′-(5,5′-(butane-1,4-diyl)bis(1,3,4-thiadiazole-5,2-diyl))bis(2-(6-methoxy-3-oxo-2,3-dihydro-1H-inden-1-yl)acetamide)] |
| < 100 | O=C(Cc1ccccn1)Nc1nnc(CCS(=O)(=O)CCc2nnc(NC(=O)Cc3ccccn3)s2)s1 [Compound 13, N,N′-(5,5′-(sulfonylbis(ethane-2,1-diyl))bis(1,3,4-thiadiazole-5,2-diyl))bis(2-(pyridin-2-yl)acetamide)] |
| < 100 | O=C(Cc1cccnc1)Nc1nnc(C/C=C/Cc2nnc(NC(=O)Cc3cccnc3)s2)s1 [Compound 27, (E)-N,N′-(5,5′-(but-2-ene-1,4-diyl)bis(1,3,4-thiadiazole-5,2-diyl))bis(2-(pyridin-3-yl)acetamide)] |
| 1000 to 10000 | CC(=O)NCCCC(=O)Nc1nnc(CCCCc2nnc(NC(=O)CCCNC(C)=O)s2)s1 [Compound 70] |
| 100 to 500 | O=C(Cc1cccc2ccccc12)Nc1nnc(CCCCc2nnc(NC(=O)Cc3cccc4ccccc34)s2)s1 [Compound 51, N,N′-(5,5′-(butane-1,4-diyl)bis(1,3,4-thiadiazole-5,2-diyl))bis(2-(naphthalen-1-yl)acetamide)] |
| < 100 | NCCCOc1ccc(CC(=O)Nc2nnc(CCS(=O)(=O)CCc3nnc(NC(=O)Cc4ccccc4)s3)s2)cc1 [Compound 36, 2-(4-(3-aminopropoxy)phenyl)-N-(5-(2-((2-(5-(2-phenylacetamido)-1,3,4-thiadiazol-2-yl)ethyl)sulfonyl)ethyl)-1,3,4-thiadiazol-2-yl)acetamide] |
| < 100 | O=C(Cc1ccc(F)c(F)c1)Nc1nnc(CCCCc2nnc(NC(=O)Cc3ccc(F)c(F)c3)s2)s1 [Compound 83, N,N′-(5,5′-(butane-1,4-diyl)bis(1,3,4-thiadiazole-5,2-diyl))bis(2-(3,4-difluorophenyl)acetamide)] |

| Structure (SMILES) | IC50 [nM] |
| --- | --- |
| O=C(Nc1nnc(CCSCCc2nnc(NC(=O)Oc3ccccc3)s2)s1)Oc1ccccc1 [Compound 1, Diphenyl (5,5′-(thiobis(ethane-2,1-diyl))bis(1,3,4-thiadiazole-5,2-diyl))dicarbamate] | 1000 to 10000 |
